Values quoted from earlier work in patent US20220125854A1, “PREPARATION AND EXTENDED CULTURE OF VASCULAR ENDOTHELIAL PROGENITOR CELL” (PUBLIC UNIVERSITY CORPORATION NAGOYA CITY UNIVERSITY, priority 2019, published 2022).

How the values were obtained:
Conditions in all cases: report
HUVECs = system: HUVECs
[1] = system: ECs derived from ES cells
[2] = system: ECs derived from iPS cells

## Cc1c[nH]c(-c2cnc(NCCNc3ccc(C#N)cn3)nc2-c2ccc(Cl)cc2Cl)n1 [CHIR 99021]
HUVECs
  proliferation potency of HUVECs: enhances the proliferation potency

## NC(=O)c1ccc(-c2nc(-c3ccccn3)c(-c3ccc4c(c3)OCO4)[nH]2)cc1 [SB 43152]
[1]
  proliferation potency of ECs derived from ES cells: enhances the proliferation potency

## C[C@@H](N)[C@H]1CC[C@H](C(=O)Nc2ccncc2)CC1 [Y-27632]
[2]
  proliferation potency of ECs derived from iPS cells: enhancing the proliferation potency
